According to patent US20190175528A1, “INHIBITION OF BIOFILM ORGANISMS” (NovaBiotics Limited, priority 2009, published 2019):
Numbered stars: 1 amine (or outer) side, 2 acyl side, 3 side chain; on linkers, the order of the positions; unused ones are H or OH. Ends that are not written are not given here. Peptide text beside a SMILES is read from it. Cysteamide = C(CS[*:3])N[*:1]

Key:
[1] = system: S. aureus ATCC25923; type: cell-based, Staphylococcus aureus; settings: ATCC25923, 24 h
Experimental: (§1) The bacterial inoculum was established by the dilution method from actively-growing cultures in Mueller-Hinton broth, standardized with 0.5 McFarland turbidity standard as described in the CLSI method M26-A.
(§2) To determine the prevention of biofilm formation, both the bacterial inoculum and the antimicrobial agents were added simultaneously to the plates. The plates were incubated at 37° C. for 24 h and the optical density was read at 625 nm on a microtitre plate reader (BioTek Powerwave XS, Winooski, USA). The MIC was obtained as the lowest concentration of antimicrobial showing total inhibition of bacterial growth.

[2] = system: S. aureus DSM 11729 (MRSA); test: microbe, parasite or virus in culture; type: cell-based, Staphylococcus aureus; settings: DSM 11729, 24 h; for MIC pH5.5, 320 mM NaCl, S. aureus 11729 / MIC pH5.5, S. aureus 11729: pH 5.5
Experimental: as §1
(§3) To determine the prevention of biofilm formation, both the bacterial inoculum and the antimicrobial agents were added simultaneously to the plates. The plates were incubated at 37° C. for 24 h and the optical density was read at 625 nm on a microtitre plate reader (BioTek Powerwave XS, Winooski, USA). The MIC was obtained as the lowest concentration of antimicrobial showing total inhibition of bacterial growth. […]
(§4) FIC=MICA[combination]/MICA[alone]+MICB[combination]/MICB[alone] […]
(§5) In order to assess for the prevention of biofilm formation by both Gram-positive and Gram-negative bacteria, the bacterial inoculum and antimicrobial agents were added simultaneously in the plates. The range of concentrations of antimicrobial agents was 0-500 μg/ml NP108 and 0-320 μg/ml cysteamine against the Gram-negative bacteria P. aeruginosa ATCC BAA-47 and 0-1000 μg/ml NP108 and 0-320 μg/ml cysteamine against the Gram-positive MRSA.

[3] = system: P. aeruginosa DSMZ1128; settings: DSMZ1128, pH 7
[4] = system: P. aeruginosa DSMZ1128; type: cell-based, Pseudomonas aeruginosa; settings: DSMZ1128, 24 h
Experimental: as §1, §2

[5] = system: P. aeruginosa DSMZ1299; type: cell-based, Pseudomonas aeruginosa; settings: for MIC at pH 7, P. aeruginosa D5MZ1299: DSMZ1299, 24 h
Experimental: as §1, §2

[6] = system: S. aureus ATCC25923; settings: ATCC25923, pH 7
[7] = system: S. epidermidis ATCC12228; type: cell-based, Staphylococcus epidermidis; settings: ATCC12228, 24 h
Experimental: as §1, §2

[8] = system: P. aeruginosa ATCC BAA-47; settings: for MBC at pH5.5, P. aeruginosa ATCCBAA-47 / MBC pH5.5, 320 mM NaCl, P. aeruginosa ATCCBAA-47: ATCC BAA-47, pH 5.5; for MBC following MIC at pH 7, P. aeruginosa ATCCBAA-47: ATCC BAA-47, pH 7
[9] = system: S. aureus DSM 11729 (MRSA); settings: for MBC at pH5.5, S. aureus 11729 / MBC pH5.5, 320 mM NaCl, S. aureus 11729: DSM 11729, pH 5.5; for MBC following MIC at pH 7, S. aureus DSMZ11729: DSM 11729, pH 7
[10] = system: S. epidermidis ATCC12228; settings: ATCC12228, pH 7
[11] = system: P. aeruginosa DSMZ1299; settings: DSMZ1299, pH 7
[12] = system: P. aeruginosa ATCC BAA-47; test: microbe, parasite or virus in culture; type: cell-based, Pseudomonas aeruginosa; settings: ATCC BAA-47, 24 h; for MIC pH5.5, 320 mM NaCl, P. aeruginosa ATCCBAA-47 / MIC pH5.5, P. aeruginosa ATCCBAA-47: pH 5.5
Experimental: as §1, §3, §4, §5

Compound	MIC at pH 7, S. aureus ATCC25923 [1] [μg/ml]	MIC pH5.5, 320 mM NaCl, S. aureus 11729 [2] [μg/ml]	MIC pH5.5, S. aureus 11729 [2] [μg/ml]	MIC at pH 7, S. aureus DSMZ11729 [2] [μg/ml]	MBC following MIC at pH 7, P. aeruginosa DSMZ1128 [3]	MIC at pH 7, P. aeruginosa DSMZ1128 [4] [μg/ml]	MIC at pH 7, P. aeruginosa D5MZ1299 [5] [μg/ml]	MBC following MIC at pH 7, S. aureus ATCC25923 [6] [μg/ml]	MIC at pH 7, S. epidermidis ATCC12228 [7] [μg/ml]	MBC at pH5.5, P. aeruginosa ATCCBAA-47 [8] [μg/ml]	MBC pH5.5, 320 mM NaCl, P. aeruginosa ATCCBAA-47 [8] [μg/ml]	MBC following MIC at pH 7, P. aeruginosa ATCCBAA-47 [8] [μg/ml]	MBC at pH5.5, S. aureus 11729 [9] [μg/ml]	MBC pH5.5, 320 mM NaCl, S. aureus 11729 [9] [μg/ml]	MBC following MIC at pH 7, S. aureus DSMZ11729 [9] [μg/ml]	MBC following MIC at pH 7, S. epidermidis ATCC12228 [10] [μg/ml]	MBC following MIC at pH 7, P. aeruginosa DSMZ1299 [11]	MIC pH5.5, 320 mM NaCl, P. aeruginosa ATCCBAA-47 [12] [μg/ml]	MIC pH5.5, P. aeruginosa ATCCBAA-47 [12] [μg/ml]	MIC at pH 7, P. aeruginosa ATCCBAA-47 [12] [μg/ml]	further results
HHPRRKPRRPKRRHH [NP441, HHPRRKPRRPKRRHH]	>500	>500	>500	>500	>500 μg/ml	>500	>500	>500	>500	>500	>500	>500	>500	>500	>500	>500	>500 μg/ml	>500	>500	>500	Exp#3, P. aeruginosa DSMZ1299 (quantity not clearly headed) [5]: >500 µg/mL
RRRFRFFFRFRRR [NP432, RRRFRFFFRFRRR]	31.25	>500	>500	62.5	250 (2) μg/ml	62.5	15.6	250	<7.8	125	>500	250	>500	>500	500	16	32 (2) μg/ml	125	125	15.6	
N=C(N)NCCC[C@H](NC(=O)[C@H](CCCNC(=N)N)NC(=O)[C@H](CCCNC(=N)N)NC(=O)[C@H](CCCNC(=N)N)NC(=O)[C@@H](N)CCCNC(=N)N)C(=O)N[C@@H](Cc1c[nH]cn1)C(=O)N[C@@H](Cc1c[nH]cn1)C(=O)NCCS [NP458, RRRRRHH-cysteamine] (H-RRRRRHH-Cysteamide; N-terminus assumed)	250	>500	>500	250	>500 μg/ml	250	125	125	31.25	>500	>500	>500	>500	>500	250	500	>500 μg/ml	>500	>500	62.5	
N=C(N)NCCC[C@H](NC(=O)[C@H](CCCCN)NC(=O)[C@@H]1CCCN1C(=O)[C@H](CCCNC(=N)N)NC(=O)[C@H](CCCNC(=N)N)NC(=O)[C@@H]1CCCN1C(=O)[C@H](CCCCN)NC(=O)[C@H](CCCNC(=N)N)NC(=O)[C@H](CCCNC(=N)N)NC(=O)[C@@H]1CCCN1C(=O)[C@H](Cc1c[nH]cn1)NC(=O)[C@@H](N)Cc1c[nH]cn1)C(=O)N[C@@H](Cc1c[nH]cn1)C(=O)N[C@@H](Cc1c[nH]cn1)C(=O)NCCS [NP451, HHPRRKPRRPKRHH-cysteamine] (H-HHPRRKPRRPKRHH-Cysteamide; N-terminus assumed)	500	>500	>500	500	>500 μg/ml	>500	>500	>500	125	250	>500	>500	>500	>500	>500	125	>500 μg/ml	>500	>500	>500	Exp#3, P. aeruginosa DSMZ1299 (quantity not clearly headed) [5]: >500 µg/mL
KKFPWRLRLRYGRR [NP445, KKFPWRLRLRYGRR]	500	>500	>500	500	250 μg/ml	62.5	31.25	>500	<7.8	>500	>500	250	>500	>500	>500	62.5	125 μg/ml	>500	>500	31.25	
